Literature values as cited in patent publication US20220409829A1, “ANTIVIRAL THAT DESTROYS DNA AND/OR RNA OF VIRUSES AND VIROIDS” (priority 2021, published 2022).

Tests used:
[1] = within 10 minutes; inhalation; FIG. 4
[2] = FIG. 5
[3] = FIG. 5; remark: listed apart in the source

Q: Which results are given for `[N-]=[N+]=O` [nitrous oxide]?
A: equilibration (Fa/Fi) [1]: approximately 90%; minimum alveolar concentration [2]: 105%; blood/gas partition coefficient [3]: 0.46; agranulocytosis (bone marrow; after 4 days of exposure): apparent; Megaloblastic changes in bone marrow (bone marrow; exposure to anesthetic concentrations for 24 hours): observed
